Assay results: ChEMBL document CHEMBL1201862, “PubChem BioAssay data set” (2004)
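Where inhibition never reached the appropriate level, the endpoint shown equals the highest concentration tested. Otherwise, values were interpolated linearly from a five-concentration, 48-hour dose response in 96-well plates. GI50: concentration for 50% inhibition of growth.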 Activity calls are given as the source filed them. No stated cut-off is given here; in the data, active = GI50 up to about 1.1 µM and inactive = higher.

Key:
Experiment in all cases: inhibition of tumour cell growth, NCI panel, 48 h
K562 = tested on: K562
UO-31 = tested on: UO-31
EKVX = tested on: EKVX
U-251 = tested on: U-251
HCT-116 = tested on: HCT-116
ACHN = tested on: ACHN
SW-620 = tested on: SW-620
Malme-3M = tested on: Malme-3M
786-0 = tested on: 786-0
SN12C = tested on: SN12C
HCC 2998 = tested on: HCC 2998
MOLT-4 = tested on: MOLT-4
HOP-92 = tested on: HOP-92
SK-MEL-5 = tested on: SK-MEL-5
M14 = tested on: M14
NCI-H460 = tested on: NCI-H460
SNB-75 = tested on: SNB-75
CAKI-1 = tested on: CAKI-1

SMILES | GI50 (K562) | GI50 (UO-31) | GI50 (EKVX) | GI50 (U-251) | GI50 (HCT-116) | GI50 (ACHN) | GI50 (SW-620) | GI50 (Malme-3M) | GI50 (786-0) | GI50 (SN12C) | GI50 (HCC 2998) | GI50 (MOLT-4) | GI50 (HOP-92) | GI50 (SK-MEL-5) | GI50 (M14) | GI50 (NCI-H460) | GI50 (SNB-75) | GI50 (CAKI-1)
Cc1ccccc1N(CCC#N)C1=NN(C(=O)CC(=O)Nc2ccc(Cl)cc2)C(c2ccccc2)C1 (stereo not given) | > 100 µM (inactive) | > 100 µM (inactive) | > 100 µM (inactive) | > 100 µM (inactive) | > 100 µM (inactive) | > 100 µM (inactive) | > 100 µM (inactive) | > 100 µM (inactive) | > 100 µM (inactive) | > 100 µM (inactive) | > 100 µM (inactive) | > 100 µM (inactive) | > 100 µM (inactive) | > 100 µM (inactive) | > 100 µM (inactive) | > 100 µM (inactive) | > 100 µM (inactive) | 
O=C(CNc1nncs1)NO | > 100 µM (inactive) | > 100 µM (inactive) | > 100 µM (inactive) | > 100 µM (inactive) | > 100 µM (inactive) | > 100 µM (inactive) | > 100 µM (inactive) | > 100 µM (inactive) | > 100 µM (inactive) | > 100 µM (inactive) | > 100 µM (inactive) | > 100 µM (inactive) | 38.2 µM (inactive) |  | > 100 µM (inactive) | > 100 µM (inactive) | > 100 µM (inactive) | 
O=c1cccccc1NCCCCNc1cccccc1=O | > 100 µM (inactive) | 42 µM (inactive) | > 100 µM (inactive) | > 100 µM (inactive) | > 100 µM (inactive) | 54.8 µM (inactive) | 67.6 µM (inactive) | 29.4 µM (inactive) | > 100 µM (inactive) | > 100 µM (inactive) | 85.3 µM (inactive) | 62.1 µM (inactive) |  | 30 µM (inactive) | 55.7 µM (inactive) | > 100 µM (inactive) | > 100 µM (inactive) | 83 µM (inactive)
Nc1c(Cl)ncnc1NCCCCCCCCCCCCNc1ncnc(Cl)c1N | < 0.01 µM (active) | 1.05 µM (active) | 3.44 µM (inactive) | 0.0857 µM (active) | 0.0469 µM (active) |  | 2.69 µM (inactive) | 1.94 µM (inactive) | 2.86 µM (inactive) | 3.13 µM (inactive) | 3.72 µM (inactive) | 0.167 µM (active) | 1.32 µM (inactive) | < 0.01 µM (active) | 3.19 µM (inactive) | 1.9 µM (inactive) | 1.28 µM (inactive) | 
CCN(CC)CCNC(=O)c1ccccc1Nc1c(Cl)cccc1Cl | > 10 µM (inactive) | 9.95 µM (inactive) | 12.7 µM (inactive) | 6.56 µM (inactive) | 12.8 µM (inactive) | 17.5 µM (inactive) | 15.3 µM (inactive) |  | 6.34 µM (inactive) | 13.7 µM (inactive) | 6.82 µM (inactive) | 13.1 µM (inactive) |  | 11.8 µM (inactive) | 18.1 µM (inactive) | 4.39 µM (inactive) | 11.2 µM (inactive) | 
N#CC(C#N)=Cc1cccc(Oc2ccccc2)c1 | 23.7 µM (inactive) | 15.9 µM (inactive) | 54.2 µM (inactive) | 13.6 µM (inactive) | 17.1 µM (inactive) | 18.2 µM (inactive) | 25.6 µM (inactive) | 20.1 µM (inactive) | 18.6 µM (inactive) | 22.5 µM (inactive) | 28.4 µM (inactive) | 25 µM (inactive) |  | 18.9 µM (inactive) | 19.6 µM (inactive) | 25.5 µM (inactive) | 29.2 µM (inactive) | 25.6 µM (inactive)
Oc1cccnc1/C=N/OCc1ccccc1 | > 100 µM (inactive) | 68.2 µM (inactive) | > 100 µM (inactive) | > 100 µM (inactive) | > 100 µM (inactive) | > 100 µM (inactive) | > 100 µM (inactive) | > 100 µM (inactive) | > 100 µM (inactive) | 97.1 µM (inactive) | > 100 µM (inactive) | > 100 µM (inactive) |  | > 100 µM (inactive) | > 100 µM (inactive) | > 100 µM (inactive) | > 100 µM (inactive) | > 100 µM (inactive)
